Results as given in patent publication US20080200454A1, “CARBON-LINKED TETRAHYDRO-PYRAZOLO-PYRIDINE MODULATORS OF CATHEPSIN S” (priority 2007, published 2008).

molecular target: Recombinant human cathepsin S (CatS) (Homo sapiens, UniProt P25774); assay: Recombinant human cathepsin S (CatS) inhibition assay, fluorogenic substrate Z-Valine-Valine-Arginine-AMC; conditions: not given;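 note: Baculovirus-expressed CatS in pH 5.0 sodium acetate buffer with DTT and NaCl, fluorescence read each minute over 20 min, inhibition derived from rate slope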
Sequence (P25774 115-331): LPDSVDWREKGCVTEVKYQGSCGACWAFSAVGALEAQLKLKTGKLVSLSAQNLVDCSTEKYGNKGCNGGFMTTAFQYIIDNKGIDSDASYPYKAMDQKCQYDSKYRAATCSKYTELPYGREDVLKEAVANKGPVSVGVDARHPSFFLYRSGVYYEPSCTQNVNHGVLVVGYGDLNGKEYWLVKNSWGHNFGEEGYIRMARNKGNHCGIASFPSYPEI

IC50	Compound
20 nM	C[C@H]1COCCN1CCCn1nc(-c2ccc(Cl)c(C#Cc3ccc(Cl)c(CNCc4ccccc4)c3)c2)c2c1CCN(C(=O)C(N)=O)C2 [Example 285, 2-(3-{4-Chloro-3-[(4-chloro-3-{[(phenylmethyl)amino]methyl}phenyl)ethynyl]phenyl}-1-{3-[(3S)-3-methylmorpholin-4-yl]propyl}-1,4,6,7-tetrahydro-5H-pyrazolo[4,3-c]pyridin-5-yl)-2-oxoacetamide]
110 nM	CN(C)C(=O)C(=O)N1CCc2c(c(-c3ccc(Cl)c(C#Cc4ccc(CNCc5ccc(Cl)cc5)cc4)c3)nn2CCCN2CCOCC2)C1 [Example 152, 2-[3-(4-Chloro-3-{[4-({[(4-chlorophenyl)methyl]amino}methyl)phenyl]ethynyl}phenyl)-1-(3-morpholin-4-ylpropyl)-1,4,6,7-tetrahydro-5H-pyrazolo[4,3-c]pyridin-5-yl]-N,N-dimethyl-2-oxoacetamide]
20 nM	NC(=O)C(=O)N1CCc2c(c(-c3ccc(Cl)c(C#Cc4ccc(Cl)c(C(=O)NCCCO)c4)c3)nn2CCCN2CCSCC2)C1 [Example 554, 5-[(5-{5-[Amino(oxo)acetyl]-1-(3-thiomorpholin-4-ylpropyl)-4,5,6,7-tetrahydro-1H-pyrazolo[4,3-c]pyridin-3-yl}-2-chlorophenyl)ethynyl]-2-chloro-N-(3-hydroxypropyl)benzamide]
170 nM	CS(=O)(=O)N1CCc2c(c(-c3ccc(Cl)c(C#Cc4ccc(CNS(=O)(=O)c5ccccc5)cc4)c3)nn2CCCN2CCOCC2)C1 [Example 71, N-(4-{2-Chloro-5-[5-methanesulfonyl-1-(3-morpholin-4-yl-propyl)-4,5,6,7-tetrahydro-1H-pyrazolo[4,3-c]pyridin-3-yl]-phenylethynyl}-benzyl)-benzenesulfonamide]
3810 nM	CS(=O)(=O)N1CCc2c(c(-c3ccc(Cl)c(C#Cc4cnc5c(c4)CNCC5)c3)nn2CCCN2CCOCC2)C1 [Example 394, 3-({2-Chloro-5-[5-(methylsulfonyl)-1-(3-morpholin-4-ylpropyl)-4,5,6,7-tetrahydro-1H-pyrazolo[4,3-c]pyridin-3-yl]phenyl}ethynyl)-5,6,7,8-tetrahydro-1,6-naphthyridine]
30 nM	CCNCc1cc(C#Cc2cc(-c3nn(CCCN4CCCCC4)c4c3CN(S(C)(=O)=O)CC4)ccc2Cl)ccc1Cl [Example 594, N-[2-Chloro-5-({2-chloro-5-[5-(methylsulfonyl)-1-(3-piperidin-1-ylpropyl)-4,5,6,7-tetrahydro-1H-pyrazolo[4,3-c]pyridin-3-yl]phenyl}ethynyl)benzyl]ethanamine]
1200 nM	CS(=O)(=O)N1CCc2c(c(-c3ccc(Cl)c(CCCNS(=O)(=O)c4cccc([N+](=O)[O-])c4)c3)nn2CCCN2CCC(N3CCCC3=O)CC2)C1 [Example 96, N-{3-[2-Chloro-5-(5-methanesulfonyl-1-{3-[4-(2-oxo-pyrrolidin-1-yl)-piperidin-1-yl]-propyl}-4,5,6,7-tetrahydro-1H-pyrazolo[4,3-c]pyridin-3-yl)-phenyl]-propyl}-3-nitro-benzenesulfonamide]
180 nM	CS(=O)(=O)N1CCc2c(c(-c3ccc(Cl)c(C#Cc4ccc5c(c4)CC(C(=O)N4CCCC4)NC5)c3)nn2CCCN2CCOCC2)C1 (centres unmarked) [Example 484, 6-({2-Chloro-5-[5-(methylsulfonyl)-1-(3-morpholin-4-ylpropyl)-4,5,6,7-tetrahydro-1H-pyrazolo[4,3-c]pyridin-3-yl]phenyl}ethynyl)-3-(pyrrolidin-1-ylcarbonyl)-1,2,3,4-tetrahydroisoquinoline]
10 nM	CS(=O)(=O)N1CCc2c(c(-c3ccc(Cl)c(C#Cc4ccc(CNCc5ccc(Cl)cc5)cc4)c3)nn2CCCN2CCC(c3ccccc3)CC2)C1 [Example 178, 1-{4-[(2-Chloro-5-{5-(methylsulfonyl)-1-[3-(4-phenylpiperidin-1-yl)propyl]-4,5,6,7-tetrahydro-1H-pyrazolo[4,3-c]pyridin-3-yl}phenyl)ethynyl]phenyl}-N-[(4-chlorophenyl)methyl]methanamine]

Compound	IC50
CS(=O)(=O)N1CCc2c(c(-c3ccc(Cl)c(CCCNC(=O)c4ccccc4)c3)nn2CCCN2CCOCC2)C1 [Example 64, N-(3-{2-Chloro-5-[5-methanesulfonyl-1-(3-morpholin-4-yl-propyl)-4,5,6,7-tetrahydro-1H-pyrazolo[4,3-c]pyridin-3-yl]-phenyl}-propyl)-benzamide]	5400 nM

same assay, conditions: CatS IC50

Compound	IC50
CS(=O)(=O)N1CCc2c(c(-c3ccc(Cl)c(C#Cc4ccc(CNCc5ccc(Cl)cc5)cc4)c3)nn2CCCN2CCN(C3CC3)CC2)C1 [Example 388, 1-{4-[(2-Chloro-5-{1-[3-(4-cyclopropylpiperazin-1-yl)propyl]-5-(methylsulfonyl)-4,5,6,7-tetrahydro-1H-pyrazolo[4,3-c]pyridin-3-yl}phenyl)ethynyl]phenyl}-N-[(4-chlorophenyl)methyl]methanamine]	60 nM
CS(=O)(=O)N1CCc2c(c(-c3ccc(Cl)c(C#Cc4ccc5c(c4)CN(C(=O)C(F)(F)F)C5)c3)nn2CCCN2CCOCC2)C1 [Example 364, 3-(4-Chloro-3-{[2-(trifluoroacetyl)-2,3-dihydro-1H-isoindol-5-yl]ethynyl}phenyl)-5-(methylsulfonyl)-1-(3-morpholin-4-ylpropyl)-4,5,6,7-tetrahydro-1H-pyrazolo[4,3-c]pyridine]	170 nM
NC(=O)N1CCc2c(c(-c3ccc(Cl)c(C#Cc4ccc(Cl)c(C(=O)N5CCCNCC5)c4)c3)nn2CCCN2CCSCC2)C1 [Example 572, 3-(4-Chloro-3-{[4-chloro-3-(1,4-diazepan-1-ylcarbonyl)phenyl]ethynyl}phenyl)-1-(3-thiomorpholin-4-ylpropyl)-1,4,6,7-tetrahydro-5H-pyrazolo[4,3-c]pyridine-5-carboxamide]	170 nM
C[C@H]1COCCN1CCCn1nc(-c2ccc(Cl)c(C#Cc3ccc(CNCc4ccc(Cl)cc4)cc3)c2)c2c1CCN(S(C)(=O)=O)C2 [Example 182, 1-[4-({2-Chloro-5-[1-{3-[(3S)-3-methylmorpholin-4-yl]propyl}-5-(methylsulfonyl)-4,5,6,7-tetrahydro-1H-pyrazolo[4,3-c]pyridin-3-yl]phenyl}ethynyl)phenyl]-N-[(4-chlorophenyl)methyl]methanamine]	80 nM
CS(=O)(=O)N1CCc2c(c(-c3ccc(Cl)c(CCc4ccc5c(c4)CNCC5)c3)nn2CCCN2CCN(C3CC3)CC2)C1 [Example 229, 7-[2-(2-Chloro-5-{1-[3-(4-cyclopropylpiperazin-1-yl)propyl]-5-(methylsulfonyl)-4,5,6,7-tetrahydro-1H-pyrazolo[4,3-c]pyridin-3-yl}phenyl)ethyl]-1,2,3,4-tetrahydroisoquinoline]	90 nM
CS(=O)(=O)N1CCc2c(c(-c3ccc(Cl)c(C#Cc4ccc5c(c4)CCNCC5)c3)nn2CCCN2CCOCC2)C1 [Example 375, 7-({2-Chloro-5-[5-(methylsulfonyl)-1-(3-morpholin-4-ylpropyl)-4,5,6,7-tetrahydro-1H-pyrazolo[4,3-c]pyridin-3-yl]phenyl}ethynyl)-2,3,4,5-tetrahydro-1H-3-benzazepine]	410 nM
NC(=O)C(=O)N1CCc2c(c(-c3ccc(Cl)c(C#Cc4ccc(Cl)c(C(=O)NCCN5CCOCC5)c4)c3)nn2CCCN2CCCCC2)C1 [Example 591, 5-[(5-{5-[Amino(oxo)acetyl]-1-(3-piperidin-1-ylpropyl)-4,5,6,7-tetrahydro-1H-pyrazolo[4,3-c]pyridin-3-yl}-2-chlorophenyl)ethynyl]-2-chloro-N-(2-morpholin-4-ylethyl)benzamide]	30 nM
